# Source: ChEMBL document CHEMBL3232742, “Design, synthesis and evaluation of a cellular stable and detectable biotinylated fumagillin probe and investigation of cell permeability of fumagillin and its analogs to endothelial and cancer cells” (Eur J Med Chem, 2013)
# Activity calls are given as the source filed them. No cut-off for these calls is given here.
# Key:
# [1] = Antiproliferative against human Bel7402 cells assessed as cell viability after 96 hrs by MTT assay; assay type: functional, cell-based; conditions: Bel-7402, 96 h
# [2] = system: HepG2; assay: Antiproliferative against human HepG2 cells assessed as cell viability after 96 hrs by MTT assay; assay type: functional, cell-based; conditions: HepG2, 96 h
# [3] = system: HUVEC; assay: Antiproliferative against HUVEC cells assessed as cell viability after 96 hrs by MTT assay; assay type: functional, cell-based; conditions: Homo sapiens
# [4] = system: A549; assay: Antiproliferative against human A549 cells assessed as cell viability up to 1000 nM after 96 hrs by MTT assay; assay type: functional
# [5] = Antiproliferative against human Bel7402 cells assessed as cell viability up to 1000 nM after 96 hrs by MTT assay; assay type: functional, Bel-7402
# [6] = system: HepG2; assay: Antiproliferative against human HepG2 cells assessed as cell viability up to 1000 nM after 96 hrs by MTT assay; assay type: functional
# [7] = system: MCF7; assay: Antiproliferative against human MCF7 cells assessed as cell viability up to 1000 nM after 96 hrs by MTT assay; assay type: functional
# [8] = target: Methionine aminopeptidase 2 (Homo sapiens) (UniProt P50579); assay: Binding affinity to MetAP2 in HUVEC at 0.1 uM by Western blotting analysis
# [9] = target: Methionine aminopeptidase 2 (Homo sapiens) (UniProt P50579); assay: Binding affinity to MetAP2 in fumagillin-pretreated HUVEC at 0.1 uM by Western blotting analysis
# [10] = target: Methionine aminopeptidase 2 (Homo sapiens) (UniProt P50579); assay: Binding affinity to MetAP2 in compound pre-treated HUVEC at 0.1 uM after 48 hrs by Western blotting analysis
# [11] = system: HepG2; assay: Stability in human HepG2 assessed as compound bound MetAP2 level at 0.1 uM by Western blotting analysis; assay type: ADME, cell-based; conditions: hepg2, 0.1 µM
# [12] = system: HUVEC; assay: Stability in HUVEC assessed as compound bound MetAP2 level at 0.1 uM by Western blotting analysis; assay type: ADME, cell-based; conditions: human
# Chain of Methionine aminopeptidase 2 (Homo sapiens) (P50579 2-478 limits assumed): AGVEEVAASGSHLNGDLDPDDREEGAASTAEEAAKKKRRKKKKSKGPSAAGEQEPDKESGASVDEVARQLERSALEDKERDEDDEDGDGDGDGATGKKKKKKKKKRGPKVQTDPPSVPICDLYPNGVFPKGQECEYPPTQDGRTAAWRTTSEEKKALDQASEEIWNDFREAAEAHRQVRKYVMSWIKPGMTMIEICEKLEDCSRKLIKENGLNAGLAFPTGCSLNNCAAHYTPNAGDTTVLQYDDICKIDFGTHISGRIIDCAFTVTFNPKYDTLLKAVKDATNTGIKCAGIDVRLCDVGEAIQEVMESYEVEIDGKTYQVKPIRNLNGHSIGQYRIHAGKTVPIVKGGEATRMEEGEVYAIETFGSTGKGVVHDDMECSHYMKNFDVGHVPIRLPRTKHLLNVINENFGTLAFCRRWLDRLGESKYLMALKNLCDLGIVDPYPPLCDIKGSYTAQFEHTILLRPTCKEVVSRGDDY
IC50 [2] [nM],Stability [11],Stability [12],SMILES,IC50 [1] [nM],IC50 [3] [nM],inhibition (INH) [4] [%],inhibition (INH) [5] [%],inhibition (INH) [6] [%],inhibition (INH) [7] [%],Activity [8],Activity [9],Activity [10]
20.2,,,COc1cccc2c1C(=O)c1c(O)c3c(c(O)c1C2=O)C[C@@](O)(C(=O)CO)C[C@@H]3O[C@H]1C[C@H](N)[C@H](O)[C@H](C)O1 [DOXORUBICIN],578,,,,,,,,
,,,CO[C@@H]1[C@H](OC(=O)/C=C/C=C/C=C/C=C/C(=O)O)CC[C@]2(CO2)[C@H]1[C@@]1(C)O[C@@H]1CC=C(C)C [FUMAGILLIN],,6.6,<50,<50,<50,<50,,,
,,,CO[C@@H]1[C@H](OC(=O)NCCCCCCCCNC(=O)CCCC[C@@H]2SC[C@@H]3NC(=O)N[C@@H]32)CC[C@]2(CO2)[C@H]1[C@@]1(C)O[C@@H]1CC=C(C)C,,9.8,<50,<50,<50,<50,Active,inactive,inactive
,Stable,Stable,CO[C@@H]1[C@H](OC(=O)NCCNC(=O)OCCOCCOCCOCCOCCOCCOC(=O)NCCCC[C@@H]2SC[C@@H]3NC(=O)N[C@@H]32)CC[C@]2(CO2)[C@H]1[C@@]1(C)O[C@@H]1CC=C(C)C,,60,<50,<50,<50,<50,,,
